Experimental data as given in ChEMBL document CHEMBL6153024, “A novel life for antitumor combretastatins: Recent developments of hybrids, prodrugs, combination therapies, and antibody-drug conjugates” (Eur J Med Chem, 2025).

Tested on: HT-29
Experiment: Anticancer activity against human HT-29 cells
Format: functional, cell-based
Settings: pooled result: one value given for 4 cell lines, strains, targets or settings

## COc1ccc(C2=C(c3cc(I)c(OC)c(I)c3)C(=O)OC2)cc1
  IC50: 258 nM
